In ChEMBL document CHEMBL1201861, “Genomics of Drug Sensitity in Cancer screening data, Wellcome Trust Sanger Institute”:

Columns and labels:
Assay in all cases: cells
[1] = test system: COLO-829; format: functional, cell-based, Homo sapiens; details: Homo sapiens, COLO-829
Description: SANGER: Inhibition of human COLO-829 cell growth in a cell viability assay.

[2] = test system: CP66-MEL; format: functional, cell-based, Homo sapiens; details: Homo sapiens, CP66-MEL;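 also: growth inhibition of CP66-MEL cells determined in a cell viability assay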
Description: SANGER: Inhibition of human CP66-MEL cell growth in a cell viability assay.

[3] = test system: D-502MG; format: functional, cell-based, Homo sapiens; details: Homo sapiens, D-502MG
Description: SANGER: Inhibition of human D-502MG cell growth in a cell viability assay.

[4] = test system: ES1; format: functional, cell-based, Homo sapiens; details: Homo sapiens, ES1;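 also: growth inhibition of ES1 cells, read out with a cell viability assay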
Description: SANGER: Inhibition of human ES1 cell growth in a cell viability assay.

[5] = test system: ES7; format: functional, cell-based, Homo sapiens; details: Homo sapiens, ES7;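 also: growth inhibition of cultured human ES7 cells, read out as cell viability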
Description: SANGER: Inhibition of human ES7 cell growth in a cell viability assay.

[6] = test system: ES8; format: functional, cell-based, Homo sapiens; details: Homo sapiens, ES8;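 also: growth inhibition of human ES8 cells, read out with a cell viability assay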
Description: SANGER: Inhibition of human ES8 cell growth in a cell viability assay.

[7] = test system: ETK-1; format: functional, cell-based, Homo sapiens; details: Homo sapiens, ETK-1;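 also: growth inhibition of human ETK-1 cells, read out with a cell viability assay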
Description: SANGER: Inhibition of human ETK-1 cell growth in a cell viability assay.

[8] = test system: EW-16; format: functional, cell-based, Homo sapiens; details: Homo sapiens, EW-16;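 also: growth inhibition of human EW-16 cells, read out as cell viability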
Description: SANGER: Inhibition of human EW-16 cell growth in a cell viability assay.

[9] = test system: GI-ME-N; format: functional, cell-based, Homo sapiens; details: Homo sapiens, GI-ME-N;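 also: growth inhibition of human GI-ME-N cells, read out with a cell viability assay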
Description: SANGER: Inhibition of human GI-ME-N cell growth in a cell viability assay.

[10] = test system: GOTO; format: functional, cell-based, Homo sapiens; details: Homo sapiens, GOTO;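 also: growth inhibition of GOTO cells, read out by a cell viability assay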
Description: SANGER: Inhibition of human GOTO cell growth in a cell viability assay.

[11] = test system: HCC1187; format: functional, cell-based, Homo sapiens; details: Homo sapiens, HCC1187;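 also: growth inhibition of HCC1187 cells, read out with a cell viability assay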
Description: SANGER: Inhibition of human HCC1187 cell growth in a cell viability assay.

[12] = test system: HCE-4; format: functional, cell-based, Homo sapiens; details: Homo sapiens, HCE-4;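 also: cell viability assay measuring inhibition of growth in the human HCE-4 cell line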
Description: SANGER: Inhibition of human HCE-4 cell growth in a cell viability assay.

[13] = test system: HT-144; format: functional, cell-based, Homo sapiens; details: Homo sapiens, HT-144
Description: SANGER: Inhibition of human HT-144 cell growth in a cell viability assay.

[14] = test system: IA-LM; format: functional, cell-based, Homo sapiens; details: Homo sapiens, IA-LM;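 also: cell viability assay measuring growth inhibition of human IA-LM cells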
Description: SANGER: Inhibition of human IA-LM cell growth in a cell viability assay.

[15] = test system: IST-SL1; format: functional, cell-based, Homo sapiens; details: Homo sapiens, IST-SL1;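 also: growth inhibition of human IST-SL1 cells, read out with a cell viability assay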
Description: SANGER: Inhibition of human IST-SL1 cell growth in a cell viability assay.

[16] = test system: K5; format: functional, cell-based, Homo sapiens; details: Homo sapiens, K5
Description: SANGER: Inhibition of human K5 cell growth in a cell viability assay.

[17] = test system: KGN; format: functional, cell-based, Homo sapiens; details: Homo sapiens, KGN;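 also: growth inhibition of KGN cells, read out with a cell viability assay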
Description: SANGER: Inhibition of human KGN cell growth in a cell viability assay.

[18] = test system: LB1047-RCC; format: functional, cell-based, Homo sapiens; details: Homo sapiens, LB1047-RCC;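 also: inhibition of cell growth, determined with a cell viability assay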
Description: SANGER: Inhibition of human LB1047-RCC cell growth in a cell viability assay.

[19] = test system: LB2241-RCC; format: functional, cell-based, Homo sapiens; details: Homo sapiens, LB2241-RCC;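 also: cell viability assay measuring how strongly the cultured human renal carcinoma line is prevented from growing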
Description: SANGER: Inhibition of human LB2241-RCC cell growth in a cell viability assay.

[20] = test system: NB6; format: functional, cell-based, Homo sapiens; details: Homo sapiens, NB6;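 also: growth inhibition of NB6 cells, read out by a cell viability assay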
Description: SANGER: Inhibition of human NB6 cell growth in a cell viability assay.

[21] = test system: NCI-H1648; format: functional, cell-based, Homo sapiens; details: Homo sapiens, NCI-H1648;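 also: cell viability assay measuring inhibition of NCI-H1648 cell growth, from the Sanger screening data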
Description: SANGER: Inhibition of human NCI-H1648 cell growth in a cell viability assay.

[22] = test system: NCI-H1650; format: functional, cell-based, Homo sapiens; details: Homo sapiens, NCI-H1650;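 also: growth inhibition of human NCI-H1650 cells measured by a cell viability assay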
Description: SANGER: Inhibition of human NCI-H1650 cell growth in a cell viability assay.

[23] = test system: NMC-G1; format: functional, cell-based, Homo sapiens; details: Homo sapiens, NMC-G1;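 also: growth inhibition of the NMC-G1 cell line, measured with a cell viability read-out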
Description: SANGER: Inhibition of human NMC-G1 cell growth in a cell viability assay.

[24] = test system: RKO; format: functional, cell-based, Homo sapiens; details: Homo sapiens, RKO;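 also: growth inhibition of human RKO cells, read out with a cell viability assay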
Description: SANGER: Inhibition of human RKO cell growth in a cell viability assay.

[25] = test system: SF-126; format: functional, cell-based, Homo sapiens; details: Homo sapiens, SF-126;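 also: growth inhibition of human SF126 cells, read out with a cell viability assay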
Description: SANGER: Inhibition of human SF126 cell growth in a cell viability assay.

[26] = test system: SHP77; format: functional, cell-based, Homo sapiens, SHP-77; details: Homo sapiens, SHP77;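 also: growth inhibition of human SHP-77 cells measured by a cell viability assay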
Description: SANGER: Inhibition of human SHP-77 cell growth in a cell viability assay.

[27] = test system: SK-N-DZ; format: functional, cell-based, Homo sapiens; details: Homo sapiens, SK-N-DZ;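 also: growth inhibition of the cancer cell line, read out through a viability assay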
Description: SANGER: Inhibition of human SK-N-DZ cell growth in a cell viability assay.

[28] = test system: SW 962; format: functional, cell-based, Homo sapiens; details: Homo sapiens, SW 962;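 also: growth inhibition of human SW962 cells, read out by a cell viability assay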
Description: SANGER: Inhibition of human SW962 cell growth in a cell viability assay.

[29] = test system: A388; format: functional, cell-based, Homo sapiens; details: Homo sapiens, A388;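 also: growth inhibition of human A388 cells, read out with a cell viability assay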
Description: SANGER: Inhibition of human A388 cell growth in a cell viability assay.

[30] = test system: A498; format: functional, cell-based, Homo sapiens; details: Homo sapiens, A498;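 also: growth inhibition of human A498 cells, read out with a cell viability assay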
Description: SANGER: Inhibition of human A498 cell growth in a cell viability assay.

[31] = test system: AM-38; format: functional, cell-based, Homo sapiens; details: Homo sapiens, AM-38;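 also: growth inhibition of AM-38 cells of human origin, read out by a cell viability assay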
Description: SANGER: Inhibition of human AM-38 cell growth in a cell viability assay.

[32] = test system: Becker; format: functional, cell-based, Homo sapiens; details: Homo sapiens, Becker;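 also: growth inhibition of Becker cells, read out with a cell viability assay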
Description: SANGER: Inhibition of human Becker cell growth in a cell viability assay.

[33] = test system: TE-9; format: functional, cell-based, Homo sapiens; details: Homo sapiens, TE-9;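 also: cell growth inhibition, measured with a cell viability readout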
Description: SANGER: Inhibition of human TE-9 cell growth in a cell viability assay.

[34] = test system: DOHH-2; format: functional, cell-based, Homo sapiens; details: Homo sapiens, DOHH-2;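 also: growth inhibition of human DOHH-2 cells, read out with a cell viability assay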
Description: SANGER: Inhibition of human DOHH-2 cell growth in a cell viability assay.

[35] = test system: EW-3; format: functional, cell-based, Homo sapiens; details: Homo sapiens, EW-3;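 also: cell viability assay read-out, IC50 reflects inhibition of growth of the EW-3 cells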
Description: SANGER: Inhibition of human EW-3 cell growth in a cell viability assay.

[36] = test system: GR-ST; format: functional, cell-based, Homo sapiens; details: Homo sapiens, GR-ST
Description: SANGER: Inhibition of human GR-ST cell growth in a cell viability assay.

[37] = test system: HH; format: functional, cell-based, Homo sapiens; details: Homo sapiens, HH
Description: SANGER: Inhibition of human HH cell growth in a cell viability assay.

[38] = test system: HL-60; format: functional, cell-based, Homo sapiens; details: Homo sapiens, HL-60;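 also: growth inhibition of human HL-60 cells, read out with a cell viability assay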
Description: SANGER: Inhibition of human HL-60 cell growth in a cell viability assay.

[39] = test system: JVM-3; format: functional, cell-based, Homo sapiens; details: Homo sapiens, JVM-3;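 also: growth inhibition of human JVM-3 cells, read out with a cell viability assay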
Description: SANGER: Inhibition of human JVM-3 cell growth in a cell viability assay.

[40] = test system: KM-H2; format: functional, cell-based, Homo sapiens; details: Homo sapiens, KM-H2;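 also: growth inhibition of KM-H2 cells, read out by a cell viability assay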
Description: SANGER: Inhibition of human KM-H2 cell growth in a cell viability assay.

[41] = test system: ML-2; format: functional, cell-based, Homo sapiens; details: Homo sapiens, ML-2;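 also: growth inhibition of ML-2 cells, measured with a cell viability readout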
Description: SANGER: Inhibition of human ML-2 cell growth in a cell viability assay.

[42] = test system: NCI-H209; format: functional, cell-based, Homo sapiens; details: Homo sapiens, NCI-H209;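 also: growth inhibition of human NCI-H209 cells, measured by a cell viability assay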
Description: SANGER: Inhibition of human NCI-H209 cell growth in a cell viability assay.

[43] = test system: NCI-H510A; format: functional, cell-based, Homo sapiens; details: Homo sapiens, NCI-H510A;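 also: growth inhibition of NCI-H510A cells, read out with a cell viability assay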
Description: SANGER: Inhibition of human NCI-H510A cell growth in a cell viability assay.

[44] = test system: A4-Fuk; format: functional, cell-based, Homo sapiens; details: Homo sapiens, A4-Fuk;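 also: growth inhibition of A4-Fuk cells, read out by a cell viability assay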
Description: SANGER: Inhibition of human A4-Fuk cell growth in a cell viability assay.

[45] = test system: ALL-PO; format: functional, cell-based, Homo sapiens; details: Homo sapiens, ALL-PO;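 also: growth inhibition of ALL-PO cells, read out by a cell viability assay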
Description: SANGER: Inhibition of human ALL-PO cell growth in a cell viability assay.

| SMILES | IC50 [1] | IC50 [3] | IC50 [4] | IC50 [5] | IC50 [6] | IC50 [7] | IC50 [8] | IC50 [9] | IC50 [10] | IC50 [11] | IC50 [12] | IC50 [13] | IC50 [14] | IC50 [16] | IC50 [17] | IC50 [18] | IC50 [19] | IC50 [21] | IC50 [23] | IC50 [24] | other results |
| --- | --- | --- | --- | --- | --- | --- | --- | --- | --- | --- | --- | --- | --- | --- | --- | --- | --- | --- | --- | --- | --- |
| CC(C)c1ccccc1Cc1cc(C(=O)Nc2ccc(S(=O)(=O)c3ccccc3C(C)(C)C)cc2)c(O)c(O)c1O | 0.701 µM | 4.92 µM | 0.13 µM | 0.27 µM | 0.119 µM | 0.788 µM | 0.185 µM | 0.403 µM | 0.171 µM | 0.425 µM | 0.469 µM | 0.152 µM | 1.56 µM | 1.77 µM | 0.436 µM | 0.319 µM | 0.147 µM | 1.12 µM | 0.505 µM | 0.0152 µM | IC50 [2]: 1.2 µM; IC50 [15]: 0.438 µM; IC50 [20]: 2.49 µM; IC50 [22]: 4.92 µM; IC50 [25]: 0.0571 µM; IC50 [26]: 0.451 µM; IC50 [27]: 0.207 µM; IC50 [28]: 0.378 µM; IC50 [29]: 0.167 µM; IC50 [30]: 1.49 µM; IC50 [31]: 0.841 µM; IC50 [32]: 0.242 µM; IC50 [33]: 0.225 µM |
| CN(C)C(=N)NC(=N)N [METFORMIN] | > 20000 µM | > 20000 µM | > 20000 µM | > 20000 µM | 17100 µM | 14100 µM | 6780 µM | > 20000 µM | > 20000 µM | 14200 µM | 11000 µM | > 20000 µM | > 20000 µM | > 20000 µM | > 20000 µM | 16400 µM | > 20000 µM | > 20000 µM | > 20000 µM | > 20000 µM | IC50 [34]: 7640 µM; IC50 [35]: 12200 µM; IC50 [36]: > 20000 µM; IC50 [37]: 9630 µM; IC50 [38]: > 20000 µM; IC50 [39]: > 20000 µM; IC50 [40]: 18700 µM; IC50 [41]: 1490 µM; IC50 [42]: 925 µM; IC50 [43]: 1310 µM; IC50 [25]: > 20000 µM; IC50 [26]: > 20000 µM; IC50 [27]: 13300 µM; IC50 [29]: > 20000 µM; IC50 [44]: > 20000 µM; IC50 [30]: > 20000 µM; IC50 [45]: 2900 µM; IC50 [31]: > 20000 µM; IC50 [32]: > 20000 µM; IC50 [33]: 10500 µM |
